Target: T1, G2A (Mus musculus, UniProt Q9Z282)
T1 construct: expressed in transfected cells; host or cells: MCF 10A (human breast epithelial cells, no endogenous G2A), plasmid pEXV3 G2A.GFP
T1 sequence (Q9Z282 1-382): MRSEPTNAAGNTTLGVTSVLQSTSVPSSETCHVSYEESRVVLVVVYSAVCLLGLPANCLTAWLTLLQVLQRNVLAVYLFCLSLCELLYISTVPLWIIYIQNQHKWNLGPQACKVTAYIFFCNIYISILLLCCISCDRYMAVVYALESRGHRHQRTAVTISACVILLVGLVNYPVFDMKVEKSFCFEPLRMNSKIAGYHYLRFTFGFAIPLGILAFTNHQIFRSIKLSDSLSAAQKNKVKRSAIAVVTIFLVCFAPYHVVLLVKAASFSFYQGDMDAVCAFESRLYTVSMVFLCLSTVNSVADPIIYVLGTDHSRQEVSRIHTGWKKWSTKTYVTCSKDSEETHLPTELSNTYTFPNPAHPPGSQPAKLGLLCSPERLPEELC
Experiment: Radioligand binding assay with cell homogenates of HEK 293 G2A.GFP cells
Settings: HEK 293 G2A.GFP cell homogenate
Description: To characterise the binding of LPC and SPC to G2A, we performed radioligand binding assays as described previously (Xu, Y, e al, Nature Cell Biology, 2: pp261-267, 2000). [^3H] 16:0 LPC and [^3H] SPC bound to cell homogenates from G2A expressing HEK 293 cells in a time-dependent manner and reached equilibrium after 60 minutes incubation at 4° C. (FIGS. 5A and B). […] LPC and [^3H] SPC. Binding of [^3H] LPC and [^3H] […] The maximum binding capacities for LPC and SPC were approximately 1,503 fmole/10^5 cells and 1,840 fmole/10^5 cells respectively.
Binding assay HEK 293 GFP or HEK 293 G2A.GFP cells were serum starved for 20 hours and subsequently collected in PBS/EDTA. Pelleted cells were stored at −80° C. until use. Frozen cells (10^6 cells/ml) were homogenized in “binding buffer” containing 20 mM Tris-HCl pH 7.5, 100 mM NaCl, 15 mM NaF, 0.2 mM PMSF, 1 mM MgCl2 and 4 mg/ml fatty acid-free BSA in a tight-fit glass Dounce homogeniser. Assays were performed in 96-well plates in triplicate with 100 μl cell homogenate (equivalent to 10^5 cells/well). Varying amounts of [^3H] 16:0 LPC or [^3H] SPC were added to cell homogenates in 50 μl of binding buffer in the presence or absence of cold 16:0 LPC or SPC, or other competitors. Plates were incubated at 4° C. for 2 hours, or for the indicated times. Cell-bound [^3H] LPC or [^3H] SPC was collected onto a filter (Printed Filtermat A, Wallac, Gaithersburg, Md.) using an automated cell harvester (HARVESTER 96, Tomtec, Orange, Conn.). A pause wash programme (five cycle washes) was used. Filters were presoaked in 1% polyethyleneimine (Sigma) to prevent nonspecific binding, dried, sealed in bags (Sample Bag, Wallac) with 4.5 ml Betaplate “Scint” scintillation cocktail (Wallac), and counted in a 1450 Microbeta Trilux Liquid Scintillation and Luminescence Counter (Wallac). Specific binding was calculated by subtraction of nonspecific binding (binding detected in the presence of 100-fold excess unlabelled lipid) from total binding.

Substance: lysophosphatidylcholine [LPC]
- Kd (Scatchard analysis, saturation binding of [3H] 16:0 LPC or [3H] SPC, 4° C., read-out: dissociation constant (Kd)): 65 nM
- maximum binding capacity (saturation binding): approximately 1,503 fmole/10^5 cells

From patent US6709830B2, “Methods for modulating the activation of a lymphocyte expressed G protein coupled receptor involved in cell proliferation, autoimmunity and inflammation” (The Regents of the University of California, priority 1997, dated 2004)
